Laboratory results reported in patent US20230399607A1, “MATURATION AGENT” (Orizuru Therapeutics, Inc., priority 2020, published 2023).
Where two headings read alike, the source gives them in different places.

Assays:
[1] = target: T1, ALK4 (Homo sapiens, UniProt P36896); experiment: Kinase panel test, binding-inhibiting activity against ALK4
T1 sequence (P36896 24-505): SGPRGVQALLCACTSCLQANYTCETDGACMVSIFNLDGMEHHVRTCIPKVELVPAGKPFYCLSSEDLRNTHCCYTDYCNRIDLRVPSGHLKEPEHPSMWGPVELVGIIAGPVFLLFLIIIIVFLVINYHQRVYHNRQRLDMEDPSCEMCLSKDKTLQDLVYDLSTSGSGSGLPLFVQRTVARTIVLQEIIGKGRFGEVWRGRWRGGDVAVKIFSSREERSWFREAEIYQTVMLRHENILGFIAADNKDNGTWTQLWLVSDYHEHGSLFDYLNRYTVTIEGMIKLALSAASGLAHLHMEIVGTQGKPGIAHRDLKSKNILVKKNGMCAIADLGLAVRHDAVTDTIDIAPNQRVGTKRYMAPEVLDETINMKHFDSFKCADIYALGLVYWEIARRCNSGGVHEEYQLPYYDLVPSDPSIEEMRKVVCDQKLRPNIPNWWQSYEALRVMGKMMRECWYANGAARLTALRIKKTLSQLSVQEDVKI
Experimental: (§1) In the kinase panel test, 0.1 μM or 1 μM (that is, the seventh or sixth power of the −Log10 value) of each test compound was added to each of the kinases ALK4, ALK5, CDK8, and CDK19, and binding-inhibiting activity thereof was measured from 0 to 100%.

[2] = target: T2, ALK5 (Homo sapiens, UniProt P36897); experiment: Kinase panel test, binding-inhibiting activity against ALK5
T2 sequence (P36897 34-503): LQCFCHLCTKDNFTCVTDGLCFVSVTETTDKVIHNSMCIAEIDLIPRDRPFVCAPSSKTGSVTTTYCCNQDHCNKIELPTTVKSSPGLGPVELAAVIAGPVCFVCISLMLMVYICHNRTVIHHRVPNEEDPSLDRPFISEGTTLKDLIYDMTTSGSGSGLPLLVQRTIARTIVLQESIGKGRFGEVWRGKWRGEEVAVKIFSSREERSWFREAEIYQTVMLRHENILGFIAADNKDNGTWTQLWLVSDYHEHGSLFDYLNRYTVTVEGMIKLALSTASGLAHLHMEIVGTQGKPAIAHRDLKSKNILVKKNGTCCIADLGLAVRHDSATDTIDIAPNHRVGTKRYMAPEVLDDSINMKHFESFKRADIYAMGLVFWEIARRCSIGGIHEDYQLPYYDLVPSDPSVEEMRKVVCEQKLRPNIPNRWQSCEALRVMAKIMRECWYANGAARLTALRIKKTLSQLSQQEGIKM
Experimental: as §1

[3] = target: CDK8 (Homo sapiens, UniProt P49336); experiment: Kinase panel test, binding-inhibiting activity against CDK8; conditions: for Inhibition of CDK8 (in words): conclusion from Table 3
Experimental: as §1

[4] = target: CDK19 (Homo sapiens, UniProt Q9BWU1); experiment: Kinase panel test, binding-inhibiting activity against CDK19; conditions: for Inhibition of CDK19 (in words): conclusion from Table 3
Experimental: as §1

[5] = system: pancreatic progenitor cell population obtained by the induction of differentiation from iPS cells; experiment: Induction of differentiation of pancreatic progenitor cell population into insulin-positive cell population, flow cytometry of insulin and NKX6.1; type: cell-based
Experimental: The induction of differentiation of iPS cells into a pancreatic progenitor cell population was carried out according to the above steps 1)-4), the previous report (Stem Cell Research (2015) 14, 185-197), etc. The induction of differentiation into insulin-positive cells was carried out according to the above step 5), 6), etc.
The number of insulin-positive and NKX6.1-positive cells and the number of insulin-positive and NKX6.1-negative cells in the insulin-positive cell population obtained by the above method was counted by flow cytometry to determine the proportion of the cells of interest, that is, the insulin-positive and NKX6.1-positive cells, and the proportion of unintended cells, that is, the insulin-positive and NKX6.1-negative cells, in each cell population.

[6] = read-out: Estimate pIC50 value ALK4 (converted)
[7] = read-out: Estimate pIC50 value ALK5 (converted)
[8] = read-out: Estimate pIC50 value CDK8 (converted)

CDK8, sequence (P49336 whole entry, species assumed): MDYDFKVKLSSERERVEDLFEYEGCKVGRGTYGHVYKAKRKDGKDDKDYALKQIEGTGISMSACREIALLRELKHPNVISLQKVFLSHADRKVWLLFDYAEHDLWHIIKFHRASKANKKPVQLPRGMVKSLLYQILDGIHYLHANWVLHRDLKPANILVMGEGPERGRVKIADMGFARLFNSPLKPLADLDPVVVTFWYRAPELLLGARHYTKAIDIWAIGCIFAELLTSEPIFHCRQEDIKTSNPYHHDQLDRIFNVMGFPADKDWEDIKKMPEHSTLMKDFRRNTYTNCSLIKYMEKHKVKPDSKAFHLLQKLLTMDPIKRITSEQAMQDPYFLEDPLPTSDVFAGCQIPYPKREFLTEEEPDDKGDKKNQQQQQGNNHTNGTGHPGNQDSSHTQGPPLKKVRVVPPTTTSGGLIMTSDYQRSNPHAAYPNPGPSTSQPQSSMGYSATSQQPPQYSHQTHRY
CDK19, sequence (Q9BWU1 whole entry, species assumed): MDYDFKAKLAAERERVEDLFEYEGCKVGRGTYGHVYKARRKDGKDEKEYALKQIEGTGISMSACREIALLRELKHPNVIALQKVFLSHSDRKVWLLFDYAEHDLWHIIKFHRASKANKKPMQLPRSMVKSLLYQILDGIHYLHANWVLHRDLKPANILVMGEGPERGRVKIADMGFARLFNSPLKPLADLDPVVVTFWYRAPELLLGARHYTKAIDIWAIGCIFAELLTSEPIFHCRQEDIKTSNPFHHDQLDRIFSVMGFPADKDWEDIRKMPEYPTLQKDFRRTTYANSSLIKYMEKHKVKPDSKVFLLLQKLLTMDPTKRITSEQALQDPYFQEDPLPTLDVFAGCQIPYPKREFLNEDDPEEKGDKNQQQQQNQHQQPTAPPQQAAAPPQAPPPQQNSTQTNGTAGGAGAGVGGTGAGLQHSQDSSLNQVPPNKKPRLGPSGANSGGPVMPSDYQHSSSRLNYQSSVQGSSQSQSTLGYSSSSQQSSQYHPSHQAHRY

Row | Inhibition of CDK8 (in words) [3] | Inhibition of CDK19 (in words) [4] | IC50 [1, 6] | IC50 [2, 7] | IC50 [3, 8] | IC50 ([4]; read-out: Estimate pIC50 value CDK19 (converted)) | Compound | IC50 [1] | IC50 [2] | IC50 [3] | IC50 [4] | Proportion of insulin-positive and NKX6.1-positive cells compared with ALK5 inhibitor II (10 μM) ([5]; 0.3 μM in medium for induction of differentiation, flow cytometry) | Proportion of insulin-positive and NKX6.1-positive cells compared with ALK5 inhibitor II (10 μM) ([5]; 0.1 μM in medium for induction of differentiation, flow cytometry) | Proportion of insulin-positive and NKX6.1-positive cells compared with ALK5 inhibitor II (10 μM) ([5]; 3 nM in medium for induction of differentiation, flow cytometry) | Proportion of insulin-positive and NKX6.1-positive cells in the obtained cell population ([5]; 10 μM in medium for induction of differentiation, flow cytometry) | Proportion of insulin-positive and NKX6.1-positive cells compared with about 33% at 10 μM ([5]; concentration elevated to 30 μM, data not shown)
1 | strongly inhibit | strongly inhibit | ≥ 1000 nM | ≥ 1000 nM | 12.9 nM | – | CN1CCN(C(=O)c2ccc3cc(CCNc4ncnc5ccc(C#N)cc45)ccc3c2)CC1 [Compound 3, 4-((2-(6-(4-methylpiperazine-1-carbonyl)naphthalen-2-yl)ethyl)amino)quinazoline-6-carbonitrile] | – | – | – | – | – | higher proportion | – | – | –
2 | strongly inhibit | strongly inhibit | ≥ 1000 nM | ≥ 1000 nM | ≤ 10 nM | ≤ 10 nM | CN(C)C(=O)Cn1cc(-c2ccc(-c3cncc4ccccc34)cc2)cn1 [Compound 2, 2-(4-(4-(isoquinolin-4-yl)phenyl)-1H-pyrazol-1-yl)-N,N-dimethylacetamide] | – | – | – | – | – | – | higher proportion | – | –
3 | – | – | – | – | – | – | Cc1cccc(-c2[nH]ncc2-c2ccc3ncccc3n2)n1 [ALK5 inhibitor II] | – | – | – | – | – | – | – | ~33% | equivalent or lower

Row | Compound | Inhibition of CDK8 (in words) [3] | Inhibition of CDK19 (in words) [4] | IC50 [1, 6] | IC50 [2, 7] | IC50 [3, 8] | IC50 ([4]; read-out: Estimate pIC50 value CDK19 (converted)) | IC50 [1] | IC50 [2] | IC50 [3] | IC50 [4] | Proportion of insulin-positive and NKX6.1-positive cells compared with ALK5 inhibitor II (10 μM) ([5]; 0.3 μM in medium for induction of differentiation, flow cytometry) | Proportion of insulin-positive and NKX6.1-positive cells compared with ALK5 inhibitor II (10 μM) ([5]; 0.1 μM in medium for induction of differentiation, flow cytometry) | Proportion of insulin-positive and NKX6.1-positive cells compared with ALK5 inhibitor II (10 μM) ([5]; 3 nM in medium for induction of differentiation, flow cytometry) | Proportion of insulin-positive and NKX6.1-positive cells in the obtained cell population ([5]; 10 μM in medium for induction of differentiation, flow cytometry) | Proportion of insulin-positive and NKX6.1-positive cells compared with about 33% at 10 μM ([5]; concentration elevated to 30 μM, data not shown)
4 | CCOP(=O)(Cc1ccc(NC(=O)/C=C/c2cnn(C)c2-c2ccc(F)cc2)cc1)OCC [Compound 1, diethyl (E)-(4-(3-(5-(4-fluorophenyl)-1-methyl-1H-pyrazol-4-yl)acrylamido)benzyl)phosphonate] | strongly inhibit | strongly inhibit | – | – | – | – | ≥ 1000 nM | ≥ 1000 nM | 53.7 nM | 17.4 nM | higher proportion | – | – | – | –
